Several values for one entry are separate records, joined by “and”; a condition that tells them apart may be missing. Equal values may be shown once.
What was measured:
Format in all cases: cell-based
[1] = system: Alternaria alternata; assay: in vitro-Test with fungal microorganisms, Method B (tables A13-A22)
Description: (§1) Example: In Vitro-Test with Fungal Microorganisms
(§2) Wells of 96-well microtiter plates are filled with 30 μl of a preparation of test compound or compound combination in methanol+emulsifier alkylaryl-polyglycol-ether. Thereafter, the solvent is evaporated in a hood. At the next step, 200 μl of liquid growth medium is given, that has been amended with an appropriate concentration of spores or mycelium suspension of the test fungus.
(§3) With the aid of a photometer, the extinction in all wells is measured at the wavelength of 600 nm.
(§4) The microtiter plates are incubated for 3 to 7 days at 20° C. and 85% relative humidity. After the incubation inhibition of growth is determined photometrically. Efficacy is calculated in relation to the untreated control, 0% efficacy means fungal growth as high as in untreated control while 100% efficacy means no fungal growth is measured.
(§5) The data in tables A1 to A12, B1 to B14, C1 to C10, D1 to D8, E1 to E8, F1 to F11, G1 to G4, H1 to H4 and I1 to I5 were collected according to Method A. The data in tables A13 to A22, B15 to B18, C11 to C20, E9 to E16, F12 to F15, G5 to G15, H5 to H8, I6 to I11 and J1 to J11 were collected according to Method B.

[2] = system: Fusarium culmorum; assay: in vitro-Test with fungal microorganisms, Method B (tables G5-G15)
Description: as §1, §2, §3, §4, §5

[3] = system: Diaporthe citri; assay: in vitro-Test with fungal microorganisms, Method A (tables F1-F11)
Description: as §1
as §2, with “10” for “30”, “100” for “200”, “potato dextrose” for “growth”, “given into each well,” for “given,”
(§6) With the aid of a photometer, the extinction in all wells is measured at the wavelength of 620 nm.
as §4, with “incubated” for “incubated for 3 to 7 days”, “The” for “After the incubation”, “again photometrically 3-5 days after the application.” for “photometrically.”
as §5

[4] = system: Colletotrichum lindemuthianum; assay: in vitro-Test with fungal microorganisms, Method A (tables D1-D8)
Description: as §1
as §2, with “10” for “30”, “100” for “200”, “potato dextrose” for “growth”, “given into each well,” for “given,”
as §6
as §4, with “incubated” for “incubated for 3 to 7 days”, “The” for “After the incubation”, “again photometrically 3-5 days after the application.” for “photometrically.”
as §5

[5] = system: Cordana musae; assay: in vitro-Test with fungal microorganisms, Method B (tables E9-E16); details: single active
Description: as §1, §2, §3, §4, §5

[6] = system: Cercospora beticola; assay: in vitro-Test with fungal microorganisms, Method B (tables C11-C20); details: single compound
Description: as §1, §2, §3, §4, §5

[7] = system: Colletotrichum coccodes; assay: in vitro-Test with fungal microorganisms, Method B (tables J1-J11)
Description: as §1, §2, §3, §4, §5

[8] = system: Ustilago segetum var. avenae; assay: in vitro-Test with fungal microorganisms, Method B (tables I6-I11); details: 0.04 ppm
Description: as §1, §2, §3, §4, §5

CCO[PH](=O)O [fosetylal]
Efficacy ([1]; 4 ppm): 0% | Efficacy ([1]; 20 ppm): 4% | Efficacy ([1]; 100 ppm): 8% | Efficacy ([1]; single compound, 0.8 ppm): 0% | Efficacy ([1]; single compound, 4 ppm): 2% | Efficacy ([2]; 0.8 ppm, alone): 11%

CCO[PH](=O)[O-].CCO[PH](=O)[O-].CCO[PH](=O)[O-].[Al+3] [(15.012) fosetyl-aluminium, fosetyl-aluminium]
Efficacy ([3]; Table F11, 0.8 ppm alone): 23% | Efficacy ([3]; Table F11, 4.0 ppm alone): 0% | Efficacy ([3]; Table F11, 20.0 ppm alone): 0% | Efficacy ([3]; Table F11, 100.0 ppm alone): 0% | Efficacy ([3]; applied alone, 0.8 ppm): 0% | Efficacy ([3]; applied alone, 4.0 ppm): 23% | Efficacy ([3]; applied alone, 100.0 ppm): 30% | Efficacy % ([4]; mixing partner alone, 4.0 ppm): 0% | Efficacy % ([4]; mixing partner alone, 20.0 ppm): 8% | Efficacy % ([4]; mixing partner alone, 100.0 ppm): 70% | Efficacy % ([4]; single active at 0.8 ppm): 0% | Efficacy % ([4]; single active at 4.0 ppm): 0% | Efficacy % ([4]; single active at 100.0 ppm): 39% and 58%

CCO[PH](=O)[O-].CCO[PH](=O)[O-].CCO[PH](=O)[O-].[Al+3] [(15.012) fosetyl-al]
Efficacy ([5]; 0.8 ppm): 0%

N#Cc1ccc(Oc2ccc(C(F)(F)C(O)(Cn3[nH]cnc3=S)c3ccc(F)cc3F)nc2)cc1 (centres unmarked) [(1.062) fluoxytioconazole, fluoxytio-conazole]
Efficacy % ([6]; 0.008 ppm): 0% | Efficacy % ([6]; 0.04 ppm): 0% | Efficacy % ([6]; 0.2 ppm): 0% | Efficacy % ([6]; 1 ppm): 48% and 54% | Efficacy % ([7]; 0.008 ppm): 32% | Efficacy % ([7]; 0.04 ppm): 0% | Efficacy % ([7]; single active compound at 0.008 ppm): 0% | Efficacy % ([7]; single active compound at 0.04 ppm): 2% | Efficacy % ([7]; single active compound at 0.2 ppm): 29% | Efficacy % ([7]; single active compound at 1 ppm): 35% | Efficacy ([2]; single active compound, 1 ppm): 30% | Efficacy % [8]: 43% | Efficacy ([5]; 0.008 ppm): 4% | Efficacy ([5]; 0.2 ppm): 10%

CCCN(CC)CC1COC2(CCC(C(C)(C)C)CC2)O1 (centres unmarked) [spiroxamin]
Efficacy ([1]; single compound, 0.8 ppm): 3% | Efficacy ([1]; single compound, 4 ppm): 15% | Efficacy ([1]; single compound, 20 ppm): 15% | Efficacy ([2]; 0.8 ppm, alone): 3%

Reference: patent US12653191B2, “Active compound combinations” (Bayer Aktiengesellschaft, priority 2020, dated 2026)
